Literature values, collected in patent publication US7767228B2, “Pharmaceutical composition for oral application and method for preparing thereof” (Cum Pharma Consulting Anstalt, priority 2004, dated 2010).

O=C(C1CCCCC1)N1CC(=O)N2CCc3ccccc3C2C1 (stereo not shown) [Praziquantel, praziquantel]
solubility in water: very low
